Data: patent publication US11440911B2, “Salts and crystals” (INTRA-CELLULAR THERAPIES, INC., priority 2017, dated 2022)

Tests used:
muscarinic = conditions: cited from earlier work
5-HT2C = biological target: T1, 5-HT2C (Homo sapiens, UniProt P28335); conditions: cited from earlier work
T1 sequence (P28335 33-458): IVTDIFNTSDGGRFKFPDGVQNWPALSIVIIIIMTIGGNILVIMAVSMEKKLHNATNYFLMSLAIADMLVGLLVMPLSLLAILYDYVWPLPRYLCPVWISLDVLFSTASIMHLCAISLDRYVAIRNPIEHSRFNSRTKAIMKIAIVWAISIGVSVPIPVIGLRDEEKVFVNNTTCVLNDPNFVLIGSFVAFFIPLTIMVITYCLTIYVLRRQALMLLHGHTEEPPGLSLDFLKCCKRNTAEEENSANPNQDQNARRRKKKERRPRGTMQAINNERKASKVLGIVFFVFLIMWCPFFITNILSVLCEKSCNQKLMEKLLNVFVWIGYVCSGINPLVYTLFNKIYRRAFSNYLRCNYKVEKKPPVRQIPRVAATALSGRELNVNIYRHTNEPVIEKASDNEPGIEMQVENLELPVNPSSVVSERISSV

[1] = solubility of free base in organic solvents; assay type: physicochemical; conditions: variety of organic solvents
[2] = free base form; cited from earlier work
H1 histaminergic = H1 histaminergic (Homo sapiens, UniProt P35367); conditions: cited from earlier work
H1 histaminergic, sequence (P35367 whole entry): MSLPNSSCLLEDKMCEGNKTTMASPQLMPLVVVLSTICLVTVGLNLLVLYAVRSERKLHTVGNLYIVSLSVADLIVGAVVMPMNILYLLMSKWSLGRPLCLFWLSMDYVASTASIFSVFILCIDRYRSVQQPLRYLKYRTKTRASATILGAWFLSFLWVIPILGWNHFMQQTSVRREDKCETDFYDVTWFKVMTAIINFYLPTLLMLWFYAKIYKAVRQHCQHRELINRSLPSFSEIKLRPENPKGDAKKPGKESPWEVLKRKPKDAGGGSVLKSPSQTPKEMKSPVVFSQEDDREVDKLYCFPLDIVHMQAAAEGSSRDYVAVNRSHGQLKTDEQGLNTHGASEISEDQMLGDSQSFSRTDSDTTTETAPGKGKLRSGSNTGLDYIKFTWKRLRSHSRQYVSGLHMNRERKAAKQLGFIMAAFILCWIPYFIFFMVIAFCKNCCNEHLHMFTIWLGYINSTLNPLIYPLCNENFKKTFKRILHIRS

[3] = salt form of U.S. Pat. No. 7,183,282, precipitated from diethyl ether; cited from earlier work

CN1CCN2c3c(cccc31)[C@@H]1CN(CCCC(=O)c3ccc(F)cc3)CC[C@@H]12 [ITI-007, 1-(4-fluoro-phenyl)-4-((6bR,10aS)-3-methyl-2,3,6b,9,10,10a-hexahydro-1H,7H-pyrido[3′,4′:4,5]pyrrolo[1,2,3-de]quinoxalin-8-yl)-butan-1-one]
binding to receptor (muscarinic): negligible binding | binding to receptor (5-HT2C): negligible binding | solubility in organic solvents [1]: good solubility | aqueous solubility [2]: poor aqueous solubility | binding to receptor (H1 histaminergic): negligible binding

CN1CCN2c3c(cccc31)C1CN(CCCC(=O)c3ccc(F)cc3)CCC12.Cl (stereo not shown) [hydrochloride salt form of ITI-007]
hygroscopicity [3]: hygroscopic | stability [3]: poor stability
